Read-outs that look alike come from different tables or passages of the source.
Key:
hCA II [1] = target: T1, hCA II (Homo sapiens, UniProt P00918); experiment: stopped-flow CO2 hydrase assay, hCA II; assay type: biochemical; settings: incubation time of 6 h, mean of three assays, read-out: KI CA II
T1 construct: made in house
Method: (§1) The newly synthesised MPCs (3 and 5a–o) were assessed for their CA inhibition activity employing the stopped-flow CO2 hydrase assay[29] for constitutional hCA (I/II) isoforms and cancer-linked hCA (IX/XII) isoforms.
(§2) The CA inhibition activity for the herein reported MPC derivatives was evaluated against the hCA isoforms I, II, IX, and XII using stopped-flow CO2 hydrase test[7]^,[33–36] (see the Supplementary Material).
(§3) Carbonic anhydrase inhibition assay
(§4) The carbonic anhydrase catalyzed CO2 hydration actions for all coumarin-based […]
(§5) Photophysics stopped-flow. The enzymes are recombinant proteins prepared in our lab. Phenol red (at a concentration of 0.2 mM) has been used as indicator, working at […]
(§6) mM Na2SO4 (for maintaining constant the ionic strength), following the initial rates of the CA-catalyzed CO2 hydration reaction for a period of 10-100 s. The CO2 concentrations ranged from 1.7 to 17 mM for the determination of the kinetic parameters and inhibition constants. For each inhibitor at least six traces of the initial 5-10% of the reaction have been used for determining the initial velocity. The uncatalyzed rates were determined in the same manner and subtracted from the total observed rates. Stock solutions of inhibitor (0.1 mM) were prepared in distilled-deionized water and dilutions up to 0.01 nM were done thereafter with the assay buffer. Inhibitor and enzyme solutions were preincubated together for 6 hrs. at room temperature prior to assay, in order to allow for the formation of the E-I complex. The inhibition constants were obtained by non-linear least-squares methods using PRISM 3 and the Cheng-Prusoff equation, and represent the mean from at least three different

hCA I [2] = target: T2, hCA I (Homo sapiens, UniProt P00915); experiment: stopped-flow CO2 hydrase assay, hCA I; assay type: biochemical
T2 construct: made in house
T2 sequence (P00915 whole entry): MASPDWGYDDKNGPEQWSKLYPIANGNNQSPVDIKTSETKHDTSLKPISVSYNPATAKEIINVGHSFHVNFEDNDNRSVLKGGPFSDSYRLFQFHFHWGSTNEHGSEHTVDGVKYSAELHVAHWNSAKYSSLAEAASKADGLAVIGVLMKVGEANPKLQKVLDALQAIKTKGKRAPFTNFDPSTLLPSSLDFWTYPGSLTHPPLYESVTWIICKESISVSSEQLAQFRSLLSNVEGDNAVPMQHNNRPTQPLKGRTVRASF
Method: as §1, §2, §3, §4, §5, §6

hCA IX = target: T3, hCA IX (Homo sapiens, UniProt Q16790); experiment: stopped-flow CO2 hydrase assay, hCA IX; assay type: biochemical; settings: for Selectivity index (SI) (KI off-target CA/KI target CA) Towards hCA IX: ratio of KI for hCA I and II relative to hCA IX; for Ki: stopped-flow, incubation time of 6 h, mean of three assays, read-out: KI CA IX
T3 construct: made in house
Method: as §1, §2, §3, §4, §5, §6

hCA XII = target: T4, hCA XII (Homo sapiens, UniProt O43570); experiment: stopped-flow CO2 hydrase assay, hCA XII; assay type: biochemical; settings: for Selectivity index (SI) (KI off-target CA/KI target CA) Towards hCA XII: ratio of KI for hCA I and II relative to hCA XII; for Ki: stopped-flow, incubation time of 6 h, mean of three assays, read-out: KI CA XII
T4 construct: made in house
T4 sequence (O43570 25-354): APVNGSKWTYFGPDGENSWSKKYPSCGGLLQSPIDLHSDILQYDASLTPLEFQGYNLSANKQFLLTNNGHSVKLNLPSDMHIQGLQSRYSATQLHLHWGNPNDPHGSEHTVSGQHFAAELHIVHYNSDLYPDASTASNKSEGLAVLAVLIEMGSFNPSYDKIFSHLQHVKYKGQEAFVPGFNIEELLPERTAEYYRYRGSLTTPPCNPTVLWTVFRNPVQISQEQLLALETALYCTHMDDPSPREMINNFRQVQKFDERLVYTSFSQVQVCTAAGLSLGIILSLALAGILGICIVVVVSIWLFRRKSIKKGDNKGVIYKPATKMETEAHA
Method: as §1, §2, §3, §4, §5, §6

MCF7 = experiment: NCI single (10 µM) dose SRB screening, MCF7; assay type: cell-based, human; settings: 10 µM single dose, MCF7, Breast cancer
Method: (§7) Following NCI protocol, sixteen MPCs were screened for their potential in vitro anticancer effects against human 59 cancer cell panels including prostate, leukaemia melanoma, colon, breast, CNS, renal, NSCLC, and ovarian cancers by National Cancer Institute (USA)[30].
(§8) The antiproliferative activities of MPC 3 and MPCs 5a–o were first evaluated in a 10 µM dose assay, with SRB assay used to determine cell survival and proliferation. […] The results of the cell growth inhibitory activities for MPCs 5g and 5l towards the different treated tumour cell lines were presented as GI% and presented in Table 3.
(§9) The anticancer test was conducted using the methods of the Drug Evaluation Branch, National Cancer Institute, Bethesda, MD, using 59 human tumour cell lines derived from nine human tissues. The GI50, TGI, and LC50 dose-response parameters were calculated for each medication.

SNB-75 = experiment: NCI single (10 µM) dose SRB screening, SNB-75; assay type: cell-based, human; settings: 10 µM single dose, SNB-75, CNS cancer
Method: as §7, §8, §9

LOX IMVI = experiment: NCI single (10 µM) dose SRB screening, LOX IMVI; assay type: cell-based, human; settings: 10 µM single dose, Melanoma
Method: as §7, §8, §9

hCA II [3] = target: T1, hCA II; settings: Figure 1; read-out: hCA II inhibition; cited from earlier work
hCA I [4] = target: T2, hCA I; settings: Figure 1; read-out: hCA I inhibition; cited from earlier work
[5] = stopped-flow, incubation time of 6 h, mean of three assays, read-out: KI CA I

Row | SMILES | Ki (hCA II [1]) [µM] | Ki (hCA I [2]) [µM] | Selectivity index (SI) (KI off-target CA/KI target CA) Towards hCA IX (hCA IX) | Ki (hCA IX) [µM] | Selectivity index (SI) (KI off-target CA/KI target CA) Towards hCA XII (hCA XII) | Ki (hCA XII) [µM] | melting point [°C] | Ki (hCA I [2]; [5]) [µM] | GI % (MCF7) [%] | GI % (SNB-75) [%] | GI % (LOX IMVI) [%] | Ki (hCA II [3]) [µM] | Ki (hCA I [4]) [µM]
1 | Cc1nc(-c2cc3ccccc3oc2=O)ccc1C(=O)/C=C/c1cccs1 [Compound 5m, 3-(6-Methyl-5-[(2E)-3-(thiophen-2-yl)prop-2-enoyl]pyridin-2-yl)-2H-chromen-2-one] | > 100 | > 100 | – | – | – | – | – | – | – | – | – | – | –
2 | Cc1nn(-c2ccccc2)cc1/C=C/C(=O)c1ccc(-c2cc3ccccc3oc2=O)nc1C [Compound 5o, 3-(6-Methyl-5-[(2E)-3–(3-methyl-1-phenyl-1H-pyrazol-4-yl)prop-2-enoyl]pyridin-2-yl)-2H-chromen-2-one] | > 100 | – | >5.15 | 19.4 | >5.62 | 17.8 | 204 to 206 | > 100 | – | – | – | – | –
3 | COc1ccc(/C=C/C(=O)c2ccc(-c3cc4ccccc4oc3=O)nc2C)cc1 [Compound 5h, 3-(5-[(2E)-3-(4-Methoxyphenyl)prop-2-enoyl]-6-methylpyridin-2-yl)-2H-chromen-2-one] | > 100 | – | >9.34 | 10.7 | >35.71 | 2.8 | 174 to 175 | > 100 | – | – | – | – | –
4 | Cc1nc(-c2cc3ccccc3oc2=O)ccc1C(=O)/C=C/c1ccc(F)cc1 [Compound 5b, 3-(5-[(2E)-3-(4-Fluorophenyl)prop-2-enoyl]-6-methylpyridin-2-yl)-2H-chromen-2-one] | > 100 | – | >29.41 | 3.4 | >37.04 | 2.7 | – | > 100 | 49 | 39 | 46 | – | –
5 | Cc1ccc(/C=C/C(=O)c2ccc(-c3cc4ccccc4oc3=O)nc2C)cc1 [Compound 5d, 3-(6-Methyl-5-[(2E)-3-(4-methylphenyl)prop-2-enoyl]pyridin-2-yl)-2H-chromen-2-one] | > 100 | – | >23.25 | 4.3 | >12.19 | 8.2 | 206 to 208 | > 100 | – | – | – | – | –
6 | Cc1nc(-c2cc3ccccc3oc2=O)ccc1C(=O)/C=C/c1ccc([N+](=O)[O-])cc1 [Compound 5e, 3-(6-Methyl-5-[(2E)-3-(4-nitrophenyl)prop-2-enoyl]pyridin-2-yl)-2H-chromen-2-one] | > 100 | – | >6.10 | 16.4 | >9.17 | 10.9 | 202 to 204 | > 100 | – | – | – | – | –
7 | O=c1ccc2cc(O)ccc2o1 [III] | – | – | – | – | – | – | – | – | – | – | – | > 100 | > 100
8 | Cc1nc(-c2cc3ccccc3oc2=O)ccc1C(=O)/C=C/c1ccc(Cl)cc1 [Compound 5c, 3-(5-[(2E)-3-(4-Chlorophenyl)prop-2-enoyl]-6-methylpyridin-2-yl)-2H-chromen-2-one] | > 100 | – | >17.24 | 5.8 | >52.63 | 1.9 | 223 to 225 | > 100 | – | – | – | – | –
9 | Cc1nc(-c2cc3ccccc3oc2=O)ccc1C(=O)/C=C/c1ccccc1 [Compound 5a, 3-(6-Methyl-5-[(2E)-3-phenylprop-2-enoyl]pyridin-2-yl)-2H-chromen-2-one] | > 100 | – | >66.67 | 1.5 | >19.61 | 5.1 | – | > 100 | – | – | – | – | –
